Experimental data reported in US9233964B2, “Sulfamide piperazine derivatives as protein tyrosine kinase inhibitors and pharmaceutical use therof” (LEO PHARMA A/S, priority 2011, dated 2016).

Experiments:
Assay type in all cases: biochemical
JAK2 = target: T1, JAK2 (Homo sapiens, UniProt O60674); assay: JAK kinase assay (HTRF, phosphorylation of synthetic peptide), JAK2; details: catalytic domain, ATP at Km (4 μM); read-out: JAK2 kinase inhibitory activity (EC50)
T1 construct: All four purified enzymes contain only the catalytic domain; His (N); purchased Carna Biosciences, Inc; host or cells: baculovirus expression system
T1 sequence (O60674 849-1124 limits assumed): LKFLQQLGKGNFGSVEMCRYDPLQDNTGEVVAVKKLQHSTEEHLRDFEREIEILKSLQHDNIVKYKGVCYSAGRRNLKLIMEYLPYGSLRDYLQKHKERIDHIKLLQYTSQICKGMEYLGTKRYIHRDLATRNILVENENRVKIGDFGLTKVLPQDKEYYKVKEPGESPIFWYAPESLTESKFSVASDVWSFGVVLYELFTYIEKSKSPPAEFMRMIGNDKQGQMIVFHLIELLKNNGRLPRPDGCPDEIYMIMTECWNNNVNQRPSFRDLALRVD
How it was run: (§1)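 Catalytic-domain human JAK1 (GST-tagged, aa 850-1154) or His-tagged JAK2, baculovirus-expressed, phosphorylated 1 µM biotinylated TK peptide at Km ATP (JAK1 7 µM, 10 mM MgCl2, 50 nM SEB; JAK2 4 µM, 5 mM MgCl2) in pH 7.0 Hepes, 20-30 min RT. EDTA stop; overnight streptavidin-XL665/cryptate HTRF read.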

TYK2 = target: T2, TYK2 (Homo sapiens, UniProt P29597); assay: JAK kinase assay (HTRF, phosphorylation of synthetic peptide), TYK2; details: catalytic domain, ATP at Km (13 μM); read-out: TYK2 kinase inhibitory activity (EC50)
T2 construct: JAK1 (aa 850-1154) and TYK2 (aa 871-1187) are expressed with an N-terminally fused GST-tag; GST (N); purchased Carna Biosciences, Inc; host or cells: baculovirus expression system
T2 sequence (P29597 871-1187): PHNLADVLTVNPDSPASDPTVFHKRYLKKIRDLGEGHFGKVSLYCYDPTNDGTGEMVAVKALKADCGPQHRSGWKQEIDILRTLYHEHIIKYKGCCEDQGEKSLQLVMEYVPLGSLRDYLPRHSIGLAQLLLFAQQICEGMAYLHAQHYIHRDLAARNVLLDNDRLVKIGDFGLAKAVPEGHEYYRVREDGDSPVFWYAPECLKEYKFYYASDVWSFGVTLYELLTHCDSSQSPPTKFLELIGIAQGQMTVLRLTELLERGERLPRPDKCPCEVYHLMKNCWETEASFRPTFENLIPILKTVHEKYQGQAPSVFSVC
How it was run: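 1 µM biotinylated TK peptide at Km ATP in pH 7.0 Hepes, 20-30 min RT. EDTA stop; overnight streptavidin-XL665/cryptate HTRF read.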

JAK3 = target: T3, JAK3 (Homo sapiens, UniProt P52333); assay: JAK kinase assay (HTRF, phosphorylation of synthetic peptide), JAK3; details: catalytic domain, ATP at Km (2 μM); read-out: JAK3 kinase inhibitory activity (EC50)
T3 construct: All four purified enzymes contain only the catalytic domain; His (N); purchased Carna Biosciences, Inc; host or cells: baculovirus expression system
T3 sequence (P52333 822-1111 limits assumed): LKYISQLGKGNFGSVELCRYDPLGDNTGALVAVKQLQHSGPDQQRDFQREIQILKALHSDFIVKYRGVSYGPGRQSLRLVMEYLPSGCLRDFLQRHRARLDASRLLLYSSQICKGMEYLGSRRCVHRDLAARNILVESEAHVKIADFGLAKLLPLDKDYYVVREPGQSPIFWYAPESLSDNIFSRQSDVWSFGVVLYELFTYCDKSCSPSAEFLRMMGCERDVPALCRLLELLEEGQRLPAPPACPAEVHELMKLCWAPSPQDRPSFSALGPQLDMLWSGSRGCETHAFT

JAK1 = target: T4, JAK1 (Homo sapiens, UniProt P23458); assay: JAK kinase assay (HTRF, phosphorylation of synthetic peptide), JAK1; details: catalytic domain, ATP at Km (7 μM); read-out: JAK1 kinase inhibitory activity (EC50)
T4 construct: JAK1 (aa 850-1154) and TYK2 (aa 871-1187) are expressed with an N-terminally fused GST-tag; GST (N); purchased Carna Biosciences, Inc; host or cells: baculovirus expression system
T4 sequence (P23458 850-1154): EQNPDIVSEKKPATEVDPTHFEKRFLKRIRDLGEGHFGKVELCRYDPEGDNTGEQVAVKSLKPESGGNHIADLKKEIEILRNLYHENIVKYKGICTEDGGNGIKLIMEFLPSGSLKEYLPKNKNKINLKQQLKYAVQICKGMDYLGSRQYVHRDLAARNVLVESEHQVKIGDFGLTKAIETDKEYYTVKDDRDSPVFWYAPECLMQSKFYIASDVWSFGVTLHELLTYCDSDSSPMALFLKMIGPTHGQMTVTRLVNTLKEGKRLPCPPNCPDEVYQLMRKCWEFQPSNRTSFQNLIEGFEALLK
How it was run: as §1

| Compound | EC50 (JAK2) | EC50 (TYK2) | EC50 (JAK3) | EC50 (JAK1) |
| --- | --- | --- | --- | --- |
| Cc1cc(CN(C)S(=O)(=O)N2CCN(c3ncnc4[nH]ccc34)CC23CC3)on1 [Example 67, N-methyl-N-[(3-methylisoxazol-5-yl)methyl]-5-(7H-pyrrolo[2,3-d]pyrimidin-4-yl)-5,8-diazaspiro[2.5]octane-8-sulfonamide] | < 0.1 µM | 0.1 to 0.5 µM | < 0.1 µM | < 0.1 µM |
| CN(CC1CCC(C(C)(C)C)CC1)S(=O)(=O)N1CCN(c2ncnc3[nH]ccc23)CC12CC2 (stereo not shown) [Example 84, N-[(4-tert-butylcyclohexyl)methyl]-N-methyl-5-(7H-pyrrolo[2,3-d]pyrimidin-4-yl)-5,8-diazaspiro[2.5]octane-8-sulfonamide] | > 0.5 µM | > 0.5 µM | > 0.5 µM | > 0.5 µM |
| CN(CC1CCN(S(=O)(=O)CCCC#N)C1)S(=O)(=O)N1CCN(c2ncnc3[nH]ccc23)CC12CC2 (stereo not shown) [Example 121, N-[[1-(3-cyanopropylsulfonyl)pyrrolidin-3-yl]methyl]-N-methyl-5-(7H-pyrrolo[2,3-d]pyrimidin-4-yl)-5,8-diazaspiro[2.5]octane-8-sulfonamide] | < 0.1 µM | 0.1 to 0.5 µM | < 0.1 µM | < 0.1 µM |
| O=S(=O)(N(CC1CCC(F)(F)CC1)CC1CCC(F)(F)CC1)N1CCN(c2ncnc3[nH]ccc23)CC12CC2 [Example 150, N,N-bis[(4,4-difluorocyclohexyl)methyl]-5-(7H-pyrrolo[2,3-d]pyrimidin-4-yl)-5,8-diazaspiro[2.5]octane-8-sulfonamide] | < 0.1 µM | > 0.5 µM | 0.1 to 0.5 µM | 0.1 to 0.5 µM |
| CCC(=O)N1CCC(CN(C)S(=O)(=O)N2CCN(c3ncnc4[nH]ccc34)CC23CC3)C1 (stereo not shown) [Example 125, N-methyl-N-[(1-propanoylpyrrolidin-3-yl)methyl]-5-(7H-pyrrolo[2,3-d]pyrimidin-4-yl)-5,8-diazaspiro[2.5]octane-8-sulfonamide] | < 0.1 µM | > 0.5 µM | 0.1 to 0.5 µM | < 0.1 µM |
| CN(CCc1ccccc1)S(=O)(=O)N1CCN(c2ncnc3[nH]ccc23)CC12CC2 [Example 58, 7-(7H-Pyrrolo[2,3-d]pyrimidin-4-yl)-4,7-diaza-spiro[2.5]octane-4-sulfonic acid methyl-phenethyl-amide] | < 0.1 µM | 0.1 to 0.5 µM | < 0.1 µM | < 0.1 µM |
| CN(CC1CCCCO1)S(=O)(=O)N1CCN(c2ncnc3[nH]ccc23)CC12CC2 (stereo not shown) [Example 64, N-methyl-5-(7H-pyrrolo[2,3-d]pyrimidin-4-yl)-N-(tetrahydropyran-2-ylmethyl)-5,8-diazaspiro[2.5]octane-8-sulfonamide] | < 0.1 µM | 0.1 to 0.5 µM | 0.1 to 0.5 µM | < 0.1 µM |
| O=S(=O)(N(CCN1CCOCC1)C1CCC1)N1CCN(c2ncnc3[nH]ccc23)CC12CC2 [Example 106, N-cyclobutyl-N-(2-morpholinoethyl)-5-(7H-pyrrolo[2,3-d]pyrimidin-4-yl)-5,8-diazaspiro[2.5]octane-8-sulfonamide] | < 0.1 µM | > 0.5 µM | 0.1 to 0.5 µM | < 0.1 µM |
| N#CC1CCN(S(=O)(=O)N2CCN(c3ncnc4[nH]ccc34)CC23CC3)CC1 [Example 39, 1-[7-(7H-Pyrrolo[2,3-d]pyrimidin-4-yl)-4,7-diaza-spiro[2.5]octane-4-sulfonyl]-piperidine-4-carbonitrile] | < 0.1 µM | > 0.5 µM | 0.1 to 0.5 µM | < 0.1 µM |
| CN(Cc1ccc(S(N)(=O)=O)cc1)S(=O)(=O)N1CCN(c2ncnc3[nH]ccc23)CC12CC2 [Example 91, N-methyl-5-(7H-pyrrolo[2,3-d]pyrimidin-4-yl)-N-[(4-sulfamoylphenyl)methyl]-5,8-diazaspiro[2.5]octane-8-sulfonamide] | < 0.1 µM | < 0.1 µM | < 0.1 µM | < 0.1 µM |
| COc1ccc(CCN(C)S(=O)(=O)N2CCN(c3ncnc4[nH]ccc34)CC23CC3)cc1OC [Example 51, 7-(7H-Pyrrolo[2,3-d]pyrimidin-4-yl)-4,7-diaza-spiro[2.5]octane-4-sulfonic acid [2-(3,4-dimethoxy-phenyl)-ethyl]-methyl-amide] | < 0.1 µM | 0.1 to 0.5 µM | < 0.1 µM | < 0.1 µM |
| CN(CC1CC(=O)C1)S(=O)(=O)N1CCN(c2ncnc3[nH]ccc23)CC12CC2 [Example 88, N-methyl-N-[(3-oxocyclobutyl)methyl]-5-(7H-pyrrolo[2,3-d]pyrimidin-4-yl)-5,8-diazaspiro[2.5]octane-8-sulfonamide] | < 0.1 µM | 0.1 to 0.5 µM | 0.1 to 0.5 µM | < 0.1 µM |

Now from value to compound:

| EC50 (JAK2) | EC50 (TYK2) | EC50 (JAK3) | EC50 (JAK1) | Compound |
| --- | --- | --- | --- | --- |
| < 0.1 µM | > 0.5 µM | 0.1 to 0.5 µM | < 0.1 µM | CN(C[C@@H]1CCCN1)S(=O)(=O)N1CCN(c2ncnc3[nH]ccc23)CC12CC2 [Int 52] |
| < 0.1 µM | 0.1 to 0.5 µM | 0.1 to 0.5 µM | < 0.1 µM | CN(CC1CCN(C(=O)CCO)CC1)S(=O)(=O)N1CCN(c2ncnc3[nH]ccc23)CC12CC2 [Example 151, N-[[1-(3-hydroxypropanoyl)-4-piperidyl]methyl]-N-methyl-5-(7H-pyrrolo[2,3-d]pyrimidin-4-yl)-5,8-diazaspiro[2.5]octane-8-sulfonamide] |
| 0.1 to 0.5 µM | > 0.5 µM | > 0.5 µM | 0.1 to 0.5 µM | COc1ccc(CNS(=O)(=O)N2CCN(c3ncnc4[nH]ccc34)CC23CC3)cc1 [Example 195, N-[(4-methoxyphenyl)methyl]-5-(7H-pyrrolo[2,3-d]pyrimidin-4-yl)-5,8-diazaspiro[2.5]octane-8-sulfonamide] |
| < 0.1 µM | > 0.5 µM | 0.1 to 0.5 µM | < 0.1 µM | CN(CC1CCN(C(=O)CCC#N)CC1)S(=O)(=O)N1CCN(c2ncnc3[nH]ccc23)CC12CC2 [Example 152, N-[[1-(3-cyanopropanoyl)-4-piperidyl]methyl]-N-methyl-5-(7H-pyrrolo[2,3-d]pyrimidin-4-yl)-5,8-diazaspiro[2.5]octane-8-sulfonamide] |
| < 0.1 µM | 0.1 to 0.5 µM | < 0.1 µM | < 0.1 µM | CN(C[C@@H]1CCCN1C=O)S(=O)(=O)N1CCN(c2ncnc3[nH]ccc23)CC12CC2 [Example 191, N-[[(2S)-1-formylpyrrolidin-2-yl]methyl]-N-methyl-5-(7H-pyrrolo[2,3-d]pyrimidin-4-yl)-5,8-diazaspiro[2.5]octane-8-sulfonamide] |
| < 0.1 µM | 0.1 to 0.5 µM | < 0.1 µM | < 0.1 µM | CN(CC1CCCN(S(C)(=O)=O)C1)S(=O)(=O)N1CCN(c2ncnc3[nH]ccc23)CC12CC2 (stereo not shown) [Example 160, N-methyl-N-[(1-methylsulfonyl-3-piperidyl)methyl]-5-(7H-pyrrolo[2,3-d]pyrimidin-4-yl)-5,8-diazaspiro[2.5]octane-8-sulfonamide] |
| < 0.1 µM | < 0.1 µM | < 0.1 µM | < 0.1 µM | CN(C[C@@H]1CC(F)(F)CN1S(=O)(=O)CC1CC1)S(=O)(=O)N1CCN(c2ncnc3[nH]ccc23)CC12CC2 [Example 164, N-[[(2S)-1-(cyclopropylmethylsulfonyl)-4,4-difluoro-pyrrolidin-2-yl]methyl]-N-methyl-5-(7H-pyrrolo[2,3-d]pyrimidin-4-yl)-5,8-diazaspiro[2.5]octane-8-sulfonamide] |
